Measured values taken from ChEMBL document CHEMBL1201862, “PubChem BioAssay data set” (2004).
Active and inactive are the calls of the source.

Tests used:
[1] = system: Streptococcus sp. 'group A'; experiment: growth inhibition of control SK(-) GAS strain, dose response, counter-screen for streptokinase expression inhibitor project, luminescence, kanamycin, BacTiterGlo, confirmation (AID 1900); assay type: functional, organism-based
Streptokinase A = molecular target: T1, Streptokinase A (Streptococcus pyogenes serotype M1, UniProt P10520); experiment: S. pyogenes streptokinase expression inhibitors, potency, dose response, plasminogen activation absorbance, OD405 (AID 1914); assay type: functional, Streptococcus pyogenes M1 GAS;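 note: secreted streptokinase activity via plasminogen activation per viability signal from cell pellet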
T1 sequence (P10520 whole entry): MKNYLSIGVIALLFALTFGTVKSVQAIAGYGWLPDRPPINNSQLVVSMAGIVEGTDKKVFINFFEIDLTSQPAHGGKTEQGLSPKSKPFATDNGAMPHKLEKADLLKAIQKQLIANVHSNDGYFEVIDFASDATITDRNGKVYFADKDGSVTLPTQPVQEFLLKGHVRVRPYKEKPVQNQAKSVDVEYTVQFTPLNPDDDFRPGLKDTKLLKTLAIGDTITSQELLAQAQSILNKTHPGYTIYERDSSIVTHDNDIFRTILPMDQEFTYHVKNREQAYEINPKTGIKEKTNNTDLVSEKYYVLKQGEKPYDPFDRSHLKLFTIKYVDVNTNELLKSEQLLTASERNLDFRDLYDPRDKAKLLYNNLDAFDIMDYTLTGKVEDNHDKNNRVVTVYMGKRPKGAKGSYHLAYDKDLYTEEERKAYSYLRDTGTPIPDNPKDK

[2] = molecular target: T2, Calpain-2 catalytic subunit (Sus scrofa, UniProt P43367); experiment: pig calpain II inhibitor potency, dose response, biochemical, fluorogenic peptide substrate (AID 1420); assay type: functional
T2 sequence (P43367 whole entry): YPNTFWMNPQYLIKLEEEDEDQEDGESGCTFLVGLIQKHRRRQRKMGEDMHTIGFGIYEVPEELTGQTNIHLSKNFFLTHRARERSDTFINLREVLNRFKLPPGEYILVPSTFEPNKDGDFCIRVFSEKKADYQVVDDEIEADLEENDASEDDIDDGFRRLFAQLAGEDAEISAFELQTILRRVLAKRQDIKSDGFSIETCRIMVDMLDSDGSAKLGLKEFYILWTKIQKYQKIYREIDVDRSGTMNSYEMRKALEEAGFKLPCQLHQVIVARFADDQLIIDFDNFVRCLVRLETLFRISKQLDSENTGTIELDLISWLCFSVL

Streptococcus = experiment: Group A Streptococcus viability loss, dose response, counter-screen for streptokinase expression inhibitor project, luminescence, BacTiterGlo (AID 1915); assay type: functional, organism-based;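 note: potency for reduction of bacterial viability or growth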
[3] = Luminescence Cell-Based Dose Confirmation HTS to Identify Activators of 5'UTR Stem-Loop Driven Alpha-Synuclein mRNA Translation in H4 Neuroglioblastoma Cells. [Related pubchem assays: 1829 (Project Summary), 1814 (Primary HTS)]; assay type: functional
[4] = Luminescence Cell-Based Dose Response HTS to Identify Activators of Luciferase Translation or Activity in H4 […] Cells. [Related pubchem assays: 1829 (Project Summary), 1814 (Primary HTS)]; assay type: functional
H4 = experiment: Luminescence Cell-Based Dose Response HTS to Identify Activators of 5'UTR Stem-Loop Driven Prion Protein mRNA Translation in H4 Neuroglioblastoma Cells. [Related pubchem assays: 1829 (Project Summary), 1814 (Primary HTS)]; assay type: functional; conditions: Homo sapiens
[5] = Luminescence Cell-Based Dose Retest to Confirm Inhibitors of Cancer Stem Cells. [Related pubchem assays (depositor defined):AID2717, AID2721]; assay type: functional; conditions: Homo sapiens
[6] = Shn3 3'UTR reporter inhibitors, dose response, cell-based, Clone20 osteoblasts, firefly luciferase, cherry-picked (AID 624132); assay type: functional;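 note: firefly luciferase luminescence from reporter carrying the Shn3 3'UTR in osteoblasts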
[7] = HepG2 cell cytotoxicity, dose response, cytotoxicity control for Shn3 inhibitor project, CellTiter-Glo, cherry-picked (AID 624134); assay type: functional, cell-based
[8] = control 3'UTR Renilla luciferase suppression, dose response, counter-screen for Shn3 inhibitor project, cell-based, Clone20-Shn3RL, cherry-picked (AID 624133); assay type: functional
Protein skinhead-1 = molecular target: T3, Protein skinhead-1 (Caenorhabditis elegans, UniProt P34707); assay type: functional
T3 sequence (P34707 whole entry): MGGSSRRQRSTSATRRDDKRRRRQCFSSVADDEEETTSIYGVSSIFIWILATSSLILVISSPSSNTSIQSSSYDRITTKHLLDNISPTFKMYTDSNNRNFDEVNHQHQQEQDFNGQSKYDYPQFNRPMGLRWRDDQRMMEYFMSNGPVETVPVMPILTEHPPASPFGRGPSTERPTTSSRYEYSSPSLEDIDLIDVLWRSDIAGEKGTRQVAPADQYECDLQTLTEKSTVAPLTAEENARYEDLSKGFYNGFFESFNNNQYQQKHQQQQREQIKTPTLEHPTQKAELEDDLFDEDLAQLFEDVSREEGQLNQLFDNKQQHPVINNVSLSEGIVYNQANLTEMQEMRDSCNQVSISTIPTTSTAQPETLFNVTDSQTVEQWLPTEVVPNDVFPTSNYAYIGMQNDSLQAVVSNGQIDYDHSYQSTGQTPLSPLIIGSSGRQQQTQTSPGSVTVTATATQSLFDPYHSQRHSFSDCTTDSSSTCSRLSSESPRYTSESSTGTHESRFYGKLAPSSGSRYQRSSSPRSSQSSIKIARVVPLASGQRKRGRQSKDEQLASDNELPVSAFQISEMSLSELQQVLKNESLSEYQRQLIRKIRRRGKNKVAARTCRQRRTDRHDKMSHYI

[9] = molecular target: T4, Carboxy-terminal domain RNA polymerase II polypeptide A small phosphatase 1 (Homo sapiens, UniProt Q9GZU7); experiment: inhibitors of CTDSP1, concentration-response testing, biochemical assay, absorbance-based, actives from ultra-high-throughput screening (AID 540297); assay type: functional
T4 sequence (Q9GZU7 whole entry): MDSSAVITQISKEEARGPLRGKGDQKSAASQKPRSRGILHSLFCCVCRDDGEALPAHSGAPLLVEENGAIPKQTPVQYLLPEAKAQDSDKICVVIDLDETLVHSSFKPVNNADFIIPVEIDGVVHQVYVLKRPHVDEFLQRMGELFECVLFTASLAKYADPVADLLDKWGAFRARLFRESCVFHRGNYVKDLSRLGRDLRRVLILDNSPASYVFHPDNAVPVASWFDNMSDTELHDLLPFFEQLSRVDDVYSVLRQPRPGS

[10] = molecular target: T5, Rac GTPase-activating protein 1 (Homo sapiens, UniProt Q9H0H5); experiment: MgcRacGAP GTPase-activating activity inhibitors, confirmation, biochemical, ADP Hunter fluorescence, primary and confirmatory (AID 624330); assay type: functional
T5 sequence (Q9H0H5 whole entry): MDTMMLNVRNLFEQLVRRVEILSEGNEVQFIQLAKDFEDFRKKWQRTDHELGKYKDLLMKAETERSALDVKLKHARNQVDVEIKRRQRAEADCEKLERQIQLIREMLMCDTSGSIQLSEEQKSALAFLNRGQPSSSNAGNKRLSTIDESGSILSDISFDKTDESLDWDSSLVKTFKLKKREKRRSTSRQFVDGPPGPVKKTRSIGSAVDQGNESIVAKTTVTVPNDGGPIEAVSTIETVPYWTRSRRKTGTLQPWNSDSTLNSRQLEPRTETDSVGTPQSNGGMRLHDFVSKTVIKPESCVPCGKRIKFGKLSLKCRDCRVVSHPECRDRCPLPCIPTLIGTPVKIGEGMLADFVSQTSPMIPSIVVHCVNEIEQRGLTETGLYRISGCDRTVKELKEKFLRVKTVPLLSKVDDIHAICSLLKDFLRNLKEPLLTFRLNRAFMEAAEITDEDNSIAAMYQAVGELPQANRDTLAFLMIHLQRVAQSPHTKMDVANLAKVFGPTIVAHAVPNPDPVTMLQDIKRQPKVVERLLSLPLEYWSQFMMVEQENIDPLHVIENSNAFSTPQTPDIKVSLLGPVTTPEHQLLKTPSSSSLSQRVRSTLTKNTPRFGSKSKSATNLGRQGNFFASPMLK

[11] = HEp-2 cell cytotoxicity, dose response, cytotoxicity control for RSV inhibitor project, HTS (AID 2410); assay type: functional; conditions: human respiratory syncytial virus

Compound: CC1(C)c2ccccc2-n2c1cc1oc(=O)cc(O)c1c2=O
- EC50 [1]: > 150 µM (not active)
- EC50 (Streptokinase A): > 150 µM (not active)
- IC50 [2]: 1.02 µM (not active)
- EC50 (Streptococcus): > 150 µM (not active)

Compound: O=C(Nc1cccc2oc(=O)ccc12)c1ccc([N+](=O)[O-])cc1[N+](=O)[O-]
- IC50 [2]: 5.83 µM (active)

Compound: COc1ccc(-n2nc(C(=O)NCC(=O)N3CCN(c4ccccc4F)CC3)c3ccccc3c2=O)cc1
- EC50 [3]: 27.8 µM (active)
- EC50 [4]: 8.08 µM (active)
- EC50 (H4): 95.7 µM (active)

Compound: COc1cc(/C=C2/CCC/C(=C\c3cc(O)c(OC)c(Cl)c3)C2=O)cc(Cl)c1O
- AC50 [5]: 0.629 µM (active)

Compound: COC(=O)c1ccc(S(=O)(=O)N2CCCN(Cc3ccccc3)CC2)n1C
- AC50 [6]: 51.1 µM (active)
- AC50 [7]: 69.6 µM (active)
- AC50 [8]: 28 µM (active)

Compound: CCN1C(=O)/C(=C\N2CCCCCC2)SC1=S
- EC50 [3]: > 120 µM (not active)
- EC50 [4]: 7.47 µM (active)
- EC50 (H4): 12.8 µM (active)

Compound: O=C(Nc1ccccc1)C1=C[C@@H](c2ccc(C(F)(F)F)cc2)C[C@@H](OCc2ccc(CO)cc2)O1
- AC50 [5]: 5.5 µM (active)

Compound: COc1ccc(NC(=O)Cn2nnc(-c3ccccc3NC(=O)c3cccs3)n2)cc1
- EC50 [3]: > 120 µM (not active)
- EC50 [4]: 3.68 µM (active)
- EC50 (H4): > 120 µM (not active)

Compound: COc1cc(F)c(C2=CC(=O)C[C@H](c3ccc(Cl)cc3)C2)cc1F
- AC50 [5]: 1.43 µM (active)

Compound: O=[N+]([O-])c1ccc(OC/C=C2\Oc3ccc([N+](=O)[O-])cc3C2N2CCOCC2)cc1 (centres undefined)
- IC50 [2]: 6.21 µM (not active)
- IC50 (Protein skinhead-1): > 100 µM (inactive)

Compound: COc1cc(Cl)c(C)cc1NC(=O)CNC(C)c1ccccc1OC (centres undefined)
- IC50 [2]: > 50 µM (not active)

Compound: Cc1sc2ncnc(N3CCC(C(=O)Nc4nc5ccc(Cl)cc5s4)CC3)c2c1C
- EC50 [3]: 8.58 µM (active)
- EC50 [4]: 19.2 µM (active)
- EC50 (H4): 28.5 µM (active)

Compound: O=S(=O)(Nc1ccc2[nH]c(-c3ccco3)nc2c1)c1ccccc1
- EC50 [3]: 14.8 µM (active)
- EC50 [4]: 36.8 µM (active)
- EC50 (H4): 17.3 µM (active)

Compound: CC(C)(C)c1nc(NCCN2CCOCC2)c2nnn(Cc3ccccc3Cl)c2n1
- AC50 [6]: 8.85 µM (active)
- AC50 [7]: 56.5 µM (active)

Compound: COc1ccc(CNC(=O)CCCn2nc([N+](=O)[O-])cc2C)cc1
- IC50 [2]: < 0.4 µM (not active)

Compound: CCn1c(O)cc(=O)nc1SCC(=O)Nc1ccc(C)cc1
- EC50 [3]: > 120 µM (not active)
- EC50 [4]: > 120 µM (not active)
- EC50 (H4): > 120 µM (not active)

Compound: COc1ccc(/C=C2\C(=O)NC(=S)N(C)C2=O)cc1C
- IC50 [9]: 0.632 µM (active)
- IC50 [10]: 21.4 µM (active)

Compound: COc1ccccc1/C=N/NC(=S)NCc1ccco1
- IC50 [2]: 8.4 µM (active)

Compound: CCOC(=O)c1cnn(-c2ncnc3c2cnn3C)c1N
- EC50 [3]: 31.6 µM (active)
- EC50 [4]: 10.9 µM (active)
- EC50 (H4): 90.5 µM (active)

Compound: O=C(NN=C1CCCC1)c1cc(O)cc(O)c1
- IC50 [9]: 10.2 µM (active)

Compound: Oc1ccc(N=Nc2ccc(Br)cc2)c(O)c1
- AC50 [5]: 4.2 µM (active)

Compound: Cc1cccc(C(=O)NNC(=O)c2ccc(-c3ccccc3)cc2)c1
- IC50 [9]: 5.8 µM (active)

Compound: COc1ccc(NC(=O)c2c3c(nc4ccccc24)CCC3)cc1S(=O)(=O)N1CCOCC1
- IC50 [9]: 3.75 µM (active)

Compound: N#Cc1nc(COc2ccccc2)oc1N1CCN(c2cccc(Cl)c2)CC1
- IC50 [2]: 34.3 µM (not active)

Compound: Cc1ccc(NC(=O)C2CCC(C(C)(C)C)CC2)cc1S(=O)(=O)N1CCOCC1 (centres undefined)
- AC50 [6]: 12.2 µM (active)
- AC50 [7]: 53.1 µM (active)

Compound: Sc1nnc(Cn2c(-c3ccccn3)nc3ccccc32)n1-c1ccc2c(c1)OCCO2
- EC50 [3]: 12.5 µM (active)
- EC50 [4]: 14.9 µM (active)
- EC50 (H4): 29.5 µM (active)

Compound: CCCCc1nc2cc(C(=O)N(C)C3CCOCC3)ccc2o1
- EC50 [3]: 1.36 µM (active)
- EC50 [4]: 15 µM (active)
- EC50 (H4): 0.399 µM (active)

Compound: Cc1ccc(/C=C\c2[nH]ccc3c4ccccc4nc2-3)cc1
- CC50 [11]: 28.9 µM (active)
- AC50 [5]: 17.4 µM (active)

Compound: O=S(=O)(c1cccs1)N1CCN(CCOc2ccc(Cl)cc2)CC1
- AC50 [6]: 13.8 µM (active)
- AC50 [7]: 37.6 µM (active)
- AC50 [8]: 23.9 µM (active)

Compound: COc1cccc(NC(=O)CN(C)C(=O)c2cc(-c3ccco3)nc3ccccc23)c1
- IC50 [9]: 6.41 µM (active)

Compound: Cc1ccc(-c2nc(NCc3ccco3)c3ccccc3n2)cc1
- IC50 [2]: 7.69 µM (not active)
- AC50 [5]: 9.72 µM (active)

Compound: CCN(CC)c1ccc(/C=C2/SC(=O)N(C(C)C)C2=O)o1
- AC50 [6]: 3.46 µM (active)
- AC50 [7]: 58.9 µM (active)
- AC50 [8]: 7.5 µM (active)
- IC50 [10]: 48.2 µM (active)

Compound: CCOCC(=O)Nc1nnc(C2CCCCC2)s1
- EC50 [3]: > 120 µM (not active)
- EC50 [4]: 83 µM (active)
- EC50 (H4): > 120 µM (not active)
